Assays:
[1] = target: T1, AT2(h) (Homo sapiens, UniProt P50052); test: AT2(h) binding assay; details: read-out: % Inhibition of Control Specific Binding
T1 construct: expressed in transfected cells; host or cells: Hela cells

[2] = system: P2X; test: P2X binding assay; parameters: species or system rat; details: 1.0E−05 M
[3] = target: T2, Glucocorticoid(h) (GR) (Homo sapiens, UniProt P04150); test: Glucocorticoid(h) (GR) binding assay; details: 1.0E−05 M; read-out: % Inhibition of Control Specific Binding
T2 construct: Glucocorticoid(h); IM-9 cells; dexamethasone; Clark et al. (1996); endogenous in cells; host or cells: IM-9 cells (cytosol)
T2 sequence (P04150 whole entry): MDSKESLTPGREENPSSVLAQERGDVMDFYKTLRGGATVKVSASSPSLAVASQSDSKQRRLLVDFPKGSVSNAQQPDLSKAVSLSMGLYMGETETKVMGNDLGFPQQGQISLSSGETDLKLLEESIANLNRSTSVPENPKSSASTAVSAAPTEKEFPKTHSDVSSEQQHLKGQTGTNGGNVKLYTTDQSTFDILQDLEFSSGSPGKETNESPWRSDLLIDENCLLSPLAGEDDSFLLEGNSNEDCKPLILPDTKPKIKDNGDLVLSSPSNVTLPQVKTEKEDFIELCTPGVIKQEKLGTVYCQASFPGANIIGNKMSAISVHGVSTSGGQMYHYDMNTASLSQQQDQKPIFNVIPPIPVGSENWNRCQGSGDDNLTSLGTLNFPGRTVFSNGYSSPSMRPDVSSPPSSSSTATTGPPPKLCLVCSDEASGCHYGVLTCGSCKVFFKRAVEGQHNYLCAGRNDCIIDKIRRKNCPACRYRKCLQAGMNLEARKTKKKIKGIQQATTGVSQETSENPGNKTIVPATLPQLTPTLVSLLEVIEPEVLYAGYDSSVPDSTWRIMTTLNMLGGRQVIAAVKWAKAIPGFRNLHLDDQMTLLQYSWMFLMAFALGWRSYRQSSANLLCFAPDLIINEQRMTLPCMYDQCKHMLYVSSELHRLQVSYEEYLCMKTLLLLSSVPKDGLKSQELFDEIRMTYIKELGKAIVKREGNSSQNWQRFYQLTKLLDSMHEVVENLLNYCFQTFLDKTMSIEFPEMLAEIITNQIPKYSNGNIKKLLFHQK

[4] = target: T3, Estrogen(h) (ER) (Homo sapiens, UniProt P03372); test: Estrogen(h) (ER) binding assay; details: 1.0E−05 M
T3 construct: Estrogen(h); MCF-7 cells; 17-β-estradiol; Sheen et al. (1985); endogenous in cells; host or cells: MCF-7 cells (cytosol)
T3 sequence (P03372 whole entry): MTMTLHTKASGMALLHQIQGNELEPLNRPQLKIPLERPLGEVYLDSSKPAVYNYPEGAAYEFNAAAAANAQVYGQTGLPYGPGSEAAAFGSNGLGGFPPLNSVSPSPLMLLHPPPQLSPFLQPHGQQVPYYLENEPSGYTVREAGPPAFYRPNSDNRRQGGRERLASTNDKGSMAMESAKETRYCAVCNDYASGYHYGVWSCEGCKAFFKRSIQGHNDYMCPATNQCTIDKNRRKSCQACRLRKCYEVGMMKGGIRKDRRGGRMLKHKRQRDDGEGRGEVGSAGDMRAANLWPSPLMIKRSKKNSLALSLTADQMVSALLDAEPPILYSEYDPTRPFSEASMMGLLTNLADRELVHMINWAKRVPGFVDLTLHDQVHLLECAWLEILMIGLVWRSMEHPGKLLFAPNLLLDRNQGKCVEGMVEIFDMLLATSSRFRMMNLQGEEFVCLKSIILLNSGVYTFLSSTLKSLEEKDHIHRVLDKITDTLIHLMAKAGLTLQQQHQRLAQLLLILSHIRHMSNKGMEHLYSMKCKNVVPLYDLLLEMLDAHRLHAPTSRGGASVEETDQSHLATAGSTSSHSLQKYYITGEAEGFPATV

[5] = target: T4, Choline transporter (Rattus norvegicus, UniProt Q9JMD7); test: Choline transporter binding assay; details: 1.0E−05 M; read-out: % Inhibition of Control Specific Binding
T4 construct: rat striatum; from tissue; host or cells: rat striatum
T4 sequence (Q9JMD7 1-580): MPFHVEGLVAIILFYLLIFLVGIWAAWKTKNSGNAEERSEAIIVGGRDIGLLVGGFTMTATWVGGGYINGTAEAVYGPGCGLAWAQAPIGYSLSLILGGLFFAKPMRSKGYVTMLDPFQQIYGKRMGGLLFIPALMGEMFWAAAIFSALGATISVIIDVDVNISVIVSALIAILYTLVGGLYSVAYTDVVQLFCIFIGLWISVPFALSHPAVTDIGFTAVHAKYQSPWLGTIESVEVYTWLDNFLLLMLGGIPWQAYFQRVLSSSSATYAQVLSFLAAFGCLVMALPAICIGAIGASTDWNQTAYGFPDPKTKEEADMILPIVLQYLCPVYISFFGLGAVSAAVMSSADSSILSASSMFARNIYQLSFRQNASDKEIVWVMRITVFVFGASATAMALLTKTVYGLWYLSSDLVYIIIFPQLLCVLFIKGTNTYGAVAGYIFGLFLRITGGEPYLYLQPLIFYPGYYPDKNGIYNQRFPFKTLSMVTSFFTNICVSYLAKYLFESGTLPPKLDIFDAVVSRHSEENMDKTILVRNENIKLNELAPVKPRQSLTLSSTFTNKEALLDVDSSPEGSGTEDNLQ

[6] = system: Phosphodiesterase 4(h); test: Phosphodiesterase 4(h) enzyme assay; format: biochemical, human; details: 1.0E−05 M
[7] = target: T5, ATPase (Na^+/K^+) (Canis lupus familiaris, UniProt P50997); test: ATPase (Na^+/K^+) enzyme assay; format: biochemical, dog; details: 1.0E−05 M
T5 construct: dog kidney; from tissue; host or cells: dog kidney

[8] = system: chronic colitis provoked by trinitrobenzene sulphonic acid (TNBS); test: Rat model of chronic colitis provoked by TNBS over 14 days, treatment from Day 1; format: in vivo
[9] = 50 mg/kg/day p.o. from Day 1, Day 14, vs CMC group

T1 sequence (P50052 whole entry): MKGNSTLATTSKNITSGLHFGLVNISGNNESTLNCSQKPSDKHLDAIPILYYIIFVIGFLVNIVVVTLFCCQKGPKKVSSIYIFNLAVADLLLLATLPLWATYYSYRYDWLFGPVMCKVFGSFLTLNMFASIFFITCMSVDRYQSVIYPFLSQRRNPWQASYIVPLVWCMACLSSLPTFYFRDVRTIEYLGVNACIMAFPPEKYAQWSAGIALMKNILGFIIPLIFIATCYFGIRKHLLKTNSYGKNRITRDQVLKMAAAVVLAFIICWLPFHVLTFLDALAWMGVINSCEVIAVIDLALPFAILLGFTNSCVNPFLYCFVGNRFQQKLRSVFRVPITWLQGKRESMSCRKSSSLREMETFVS

Row | Compound | inhibition at 10 µM [1] [%] | % Inhibition of Control Specific Binding [2] [%] | inhibition at 10 µM [3] [%] | % Inhibition of Control Specific Binding [4] [%] | inhibition at 10 µM [5] [%] | % Inhibition of Control Values [6] [%] | % Inhibition of Control Values [7] [%] | macroscopic Damage Score ([8]; 50 mg/kg/day p.o. from Day 1, Day 14) | reduction in colon weight [8, 9] | reduction in colonic MPO activity [8, 9] | reduction in colonic TNF-α levels [8, 9] | reduction in colonic lesion area (% of the total area measured) [8, 9] | attenuation of TNBS-induced fall in body weight (% change of body weight at Day −1) ([8]; 50 mg/kg/day p.o. in divided doses from Day 1, over 14 days, vs CMC group)
1 | N#Cc1ccc2c(ccn2CCCCCB(O)O)c1 [Example 20, 5-(5-cyano-1H-indol-1-yl)pentylboronic acid] | 3 | 14 | -7 | 3 | 1 | 91 | 8 | – | – | – | – | – | –
2 | O=C(O)c1cc(/N=N/c2ccc(S(=O)(=O)Nc3ccccn3)cc2)ccc1O [sulfasalazine, reference compound] | – | – | – | – | – | – | – | reduced the damage score | significant (P<0.05) reduction in colon weight | significantly (P<0.001) reduced the elevated colonic levels of MPO | significantly reduced the elevated colonic levels of TNF-α | significantly (P<0.001) reduced the extent of macroscopic injury | reached statistical significance compared with the CMC challenged group on at Day 2, 3, 6 and 7

From patent US20090264384A1, “INDOLE, BENZIMIDAZOLE, AND BENZOLACTAM BORONIC ACID COMPOUNDS, ANALOGS THEREOF AND METHODS OF USE THEREOF” (Nuada, Inc., priority 2004, published 2009)
